Results published in ChEMBL document CHEMBL1201862, “PubChem BioAssay data set” (2004).
The source made the active and inactive calls.

Experiments:
[1] = biological target: T1, Coagulation factor XII (Homo sapiens, UniProt P00748); assay: Factor XIIa Dose Response Confirmation from Single Well HTS. [Related pubchem assays (depositor defined):AID701]; type: functional
T1 sequence (P00748 whole entry): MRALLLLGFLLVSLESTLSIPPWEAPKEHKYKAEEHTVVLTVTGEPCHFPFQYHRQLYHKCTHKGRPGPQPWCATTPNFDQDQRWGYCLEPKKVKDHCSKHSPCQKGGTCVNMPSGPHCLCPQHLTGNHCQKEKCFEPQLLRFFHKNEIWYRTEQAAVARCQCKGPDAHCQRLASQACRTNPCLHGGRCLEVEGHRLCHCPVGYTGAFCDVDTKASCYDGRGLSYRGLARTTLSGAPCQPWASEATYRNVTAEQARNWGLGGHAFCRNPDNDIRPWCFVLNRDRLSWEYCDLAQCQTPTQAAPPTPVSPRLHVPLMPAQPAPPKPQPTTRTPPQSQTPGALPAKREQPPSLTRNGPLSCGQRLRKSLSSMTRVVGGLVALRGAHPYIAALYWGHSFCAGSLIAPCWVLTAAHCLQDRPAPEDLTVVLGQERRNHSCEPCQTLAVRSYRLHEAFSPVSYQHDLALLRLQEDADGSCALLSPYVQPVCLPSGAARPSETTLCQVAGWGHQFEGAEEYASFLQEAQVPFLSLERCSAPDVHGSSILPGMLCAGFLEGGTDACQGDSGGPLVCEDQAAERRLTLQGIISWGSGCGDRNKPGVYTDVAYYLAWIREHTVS

[2] = biological target: Alkaline phosphatase, placental type (Homo sapiens, UniProt P05187); assay: human placental alkaline phosphatase inhibition – biochemical, luminescence, confirmation (AID 1512); type: functional
[3] = biological target: T2, Alkaline phosphatase, tissue-nonspecific isozyme (Homo sapiens, UniProt P05186); assay: potency against alkaline phosphatase TNAP – biochemical, luminescent, dose response, SAR follow-up (AID 1056)
T2 sequence (P05186 whole entry): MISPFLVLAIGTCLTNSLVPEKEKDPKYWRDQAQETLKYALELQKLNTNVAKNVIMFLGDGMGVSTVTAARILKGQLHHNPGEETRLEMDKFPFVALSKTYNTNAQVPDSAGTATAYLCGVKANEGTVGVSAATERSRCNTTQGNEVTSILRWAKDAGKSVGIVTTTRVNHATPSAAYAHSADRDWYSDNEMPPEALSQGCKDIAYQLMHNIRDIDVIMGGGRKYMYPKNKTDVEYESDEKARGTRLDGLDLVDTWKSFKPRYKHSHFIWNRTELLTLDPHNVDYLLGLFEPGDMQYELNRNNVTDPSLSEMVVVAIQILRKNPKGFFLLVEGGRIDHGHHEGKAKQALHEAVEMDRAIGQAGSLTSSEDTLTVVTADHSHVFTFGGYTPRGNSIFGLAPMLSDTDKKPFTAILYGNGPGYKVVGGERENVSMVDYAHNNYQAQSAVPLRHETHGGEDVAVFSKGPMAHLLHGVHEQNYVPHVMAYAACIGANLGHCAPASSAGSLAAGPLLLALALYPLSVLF

[4] = biological target: Glyceraldehyde-3-phosphate dehydrogenase (Homo sapiens, UniProt P04406)
[5] = biological target: T3, Microphthalmia-associated transcription factor (Homo sapiens, UniProt O75030); assay: reducers of TRPM1 reporter luminescence, concentration series – cell-based, SK-MEL-5, cherry-picked, set 3, MITF inhibitor project, dose response (AID 493073); type: functional;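 further: SK-MEL-5 melanoma cells with luciferase driven by the MITF target TRPM1 promoter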
T3 sequence (O75030 whole entry): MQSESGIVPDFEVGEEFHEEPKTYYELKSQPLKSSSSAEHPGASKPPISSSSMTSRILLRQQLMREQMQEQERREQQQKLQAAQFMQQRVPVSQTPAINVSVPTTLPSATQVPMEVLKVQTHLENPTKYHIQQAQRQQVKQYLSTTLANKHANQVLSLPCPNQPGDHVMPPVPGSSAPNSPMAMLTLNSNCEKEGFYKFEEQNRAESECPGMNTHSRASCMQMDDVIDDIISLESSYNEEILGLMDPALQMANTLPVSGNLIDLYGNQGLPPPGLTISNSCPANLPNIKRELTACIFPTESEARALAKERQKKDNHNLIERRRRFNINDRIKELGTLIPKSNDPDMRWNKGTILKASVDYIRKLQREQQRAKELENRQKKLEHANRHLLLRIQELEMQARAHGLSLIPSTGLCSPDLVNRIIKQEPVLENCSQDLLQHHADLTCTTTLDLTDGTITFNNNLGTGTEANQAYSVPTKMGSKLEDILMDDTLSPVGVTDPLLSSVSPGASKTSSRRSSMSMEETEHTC

[6] = biological target: T3, Microphthalmia-associated transcription factor; assay: reducers of TRPM1 reporter luminescence, concentration series – cell-based, SK-MEL-5, cherry-picked, set 4, MITF inhibitor project, dose response (AID 493102); type: functional
[7] = biological target: T3, Microphthalmia-associated transcription factor; assay: MITF Measured in Cell-Based System Using Plate Reader - 2084-01_Inhibitor_DoseNoFile_CherryPick_Activity_Set2. [Related pubchem assays (depositor defined):AID488944]; type: functional
[8] = reduction of Shn3 3'UTR-driven luciferase in osteoblasts – cell-based, Clone20 osteoblasts, firefly luciferase, cherry-picked, dose response (AID 624132); type: functional;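 further: firefly luciferase luminescence from reporter carrying the Shn3 3'UTR in osteoblasts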
[9] = viability of HCT116 lacking mutant beta-catenin – cell-based, human colon tumor, dose response (AID 1045); type: functional;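 further: HCT116 colon tumor cells with beta catenin knocked out; cells exposed to compound for 60 hours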
[10] = HepG2 cell cytotoxicity, dose response, cytotoxicity control for non-replicating M. tuberculosis project (AID 489018); type: functional; conditions: Mycobacterium tuberculosis
[11] = tested on: HEK293; assay: cells; type: functional, cell-based; conditions: Homo sapiens
[12] = tested on: HEK293; assay: cells; type: functional, cell-based; conditions: Homo sapiens; remark: listed apart in the source
[13] = tested on: BJ; assay: BJ-TERT-LT-ST fibroblast viability loss – cell-based, RAS-independent, luminescence, dose response (AID 1935); type: functional; conditions: Homo sapiens;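 further: BJ fibroblasts immortalized with TERT plus LT and ST oncogenes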
[14] = biological target: Nucleotide-binding oligomerization domain-containing protein 2 (Homo sapiens, UniProt Q9HC29); assay: inhibition of NOD2-driven NF-kB reporter – cell-based, luminescence, uHTS, HEK293 (AID 1566); type: functional
[15] = loss of viability in HepG2 cells – cell-based, CellTiter-Glo, cherry-picked, cytotoxicity control for Shn3 inhibitor project, dose response (AID 624134); type: functional
[16] = non-specific 3'UTR reporter inhibition in Clone20-Shn3RL – cell-based, Renilla luciferase, cherry-picked, counter-screen for Shn3 inhibitor project, dose response (AID 624133); type: functional
[17] = biological target: FAD-linked sulfhydryl oxidase ALR (Homo sapiens, UniProt P55789); assay: ALR-catalysed DTT oxidation blockers – biochemical, H2O2 detection, luminescence, cherry-pick, dose response (AID 493248)
[18] = Vero E6 cell cytotoxicity, dose response, cytotoxicity control for non-replicating M. tuberculosis project, secondary assay (AID 492998); type: functional, VeroE6; conditions: Vero C1008
[19] = NIH3T3 cell viability loss – ATP luminescence, mouse fibroblasts, counter-screen, dose response (AID 2010); type: functional, cell-based;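 further: cells exposed to compound for about 90 hours before reading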
[20] = tested on: HEK293; assay: cells; type: functional, cell-based; conditions: Homo sapiens; remark: listed apart in the source
[21] = Trypanosoma cruzi growth suppression in host cells – NIH3T3 host cells, beta-gal luminescence, confirmation (AID 2044); type: functional, cell-based;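 further: intracellular parasites grown in NIH/3T3 mouse fibroblasts as host cells; luminescent beta-galactosidase reporter signal from transgenic T. cruzi replicating inside host cells; inhibitors lower the luminescence signal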
[22] = tested on: HEK293; assay: inhibition of NOD1-driven NF-kB reporter – cell-based, luminescence, uHTS, primary screen (AID 1578); type: functional; conditions: Homo sapiens
[23] = DRD fibroblast viability loss – cell-based, non-viral oncogenic, luminescence, dose response (AID 1934); type: functional; conditions: Homo sapiens
[24] = tested on: INS1; assay: INS-1E survival protection against cytokine death – cell-based, luminescence, retest, dose response (AID 449756); type: functional; conditions: Rattus norvegicus;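 further: cell death triggered by IL-1 beta plus TNF-alpha plus IFN-gamma mixture; protective hits raise ATP signal compared with cytokine alone wells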
[25] = tested on: HEK293; assay: NOD2 signaling inhibitors in MDP-stimulated cells, cell-based, uHTS, luminescence (AID 2001); type: functional; conditions: Homo sapiens
[26] = THP-1 cell cytotoxicity, dose response, cytotoxicity control for non-replicating M. tuberculosis project (AID 489025); type: functional
[27] = cells; type: functional
[28] = tested on: BJ; assay: BJ-TERT fibroblast viability loss – cell-based, RAS-independent, luminescence, dose response (AID 1933); type: functional; conditions: Homo sapiens
[29] = tested on: BJ; assay: cells; type: functional, cell-based; conditions: Homo sapiens
[30] = viability of PTEN-deleted HCT116 cells – cell-based, HCT116 PTEN knockout, dose response (AID 1047); type: functional;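 further: HCT116 colon tumor cells with PTEN knocked out; cells exposed to compound for 60 hours before readout; potency for loss of cell viability measured by luminescence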
[31] = biological target: Heat shock protein HSP 90-alpha (Homo sapiens, UniProt P07900); type: functional, organism-based

Sequence of FAD-linked sulfhydryl oxidase ALR (P55789 whole entry): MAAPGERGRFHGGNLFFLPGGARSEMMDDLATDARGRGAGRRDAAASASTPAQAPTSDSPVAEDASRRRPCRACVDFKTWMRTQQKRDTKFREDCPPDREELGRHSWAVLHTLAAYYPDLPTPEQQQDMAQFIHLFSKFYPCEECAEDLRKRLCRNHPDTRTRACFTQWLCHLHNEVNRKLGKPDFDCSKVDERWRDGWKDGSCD
Sequence of Glyceraldehyde-3-phosphate dehydrogenase (P04406 whole entry): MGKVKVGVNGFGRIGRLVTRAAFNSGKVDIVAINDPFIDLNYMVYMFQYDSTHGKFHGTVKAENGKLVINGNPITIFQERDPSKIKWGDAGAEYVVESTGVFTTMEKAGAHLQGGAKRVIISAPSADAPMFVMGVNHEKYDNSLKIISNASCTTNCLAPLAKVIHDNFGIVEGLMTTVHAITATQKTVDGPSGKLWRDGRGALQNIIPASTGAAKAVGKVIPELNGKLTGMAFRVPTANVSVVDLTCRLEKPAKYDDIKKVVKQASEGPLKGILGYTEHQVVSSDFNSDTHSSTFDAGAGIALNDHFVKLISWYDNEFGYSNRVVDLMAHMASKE
Sequence of Nucleotide-binding oligomerization domain-containing protein 2 (Q9HC29 whole entry, the tested form may be a part): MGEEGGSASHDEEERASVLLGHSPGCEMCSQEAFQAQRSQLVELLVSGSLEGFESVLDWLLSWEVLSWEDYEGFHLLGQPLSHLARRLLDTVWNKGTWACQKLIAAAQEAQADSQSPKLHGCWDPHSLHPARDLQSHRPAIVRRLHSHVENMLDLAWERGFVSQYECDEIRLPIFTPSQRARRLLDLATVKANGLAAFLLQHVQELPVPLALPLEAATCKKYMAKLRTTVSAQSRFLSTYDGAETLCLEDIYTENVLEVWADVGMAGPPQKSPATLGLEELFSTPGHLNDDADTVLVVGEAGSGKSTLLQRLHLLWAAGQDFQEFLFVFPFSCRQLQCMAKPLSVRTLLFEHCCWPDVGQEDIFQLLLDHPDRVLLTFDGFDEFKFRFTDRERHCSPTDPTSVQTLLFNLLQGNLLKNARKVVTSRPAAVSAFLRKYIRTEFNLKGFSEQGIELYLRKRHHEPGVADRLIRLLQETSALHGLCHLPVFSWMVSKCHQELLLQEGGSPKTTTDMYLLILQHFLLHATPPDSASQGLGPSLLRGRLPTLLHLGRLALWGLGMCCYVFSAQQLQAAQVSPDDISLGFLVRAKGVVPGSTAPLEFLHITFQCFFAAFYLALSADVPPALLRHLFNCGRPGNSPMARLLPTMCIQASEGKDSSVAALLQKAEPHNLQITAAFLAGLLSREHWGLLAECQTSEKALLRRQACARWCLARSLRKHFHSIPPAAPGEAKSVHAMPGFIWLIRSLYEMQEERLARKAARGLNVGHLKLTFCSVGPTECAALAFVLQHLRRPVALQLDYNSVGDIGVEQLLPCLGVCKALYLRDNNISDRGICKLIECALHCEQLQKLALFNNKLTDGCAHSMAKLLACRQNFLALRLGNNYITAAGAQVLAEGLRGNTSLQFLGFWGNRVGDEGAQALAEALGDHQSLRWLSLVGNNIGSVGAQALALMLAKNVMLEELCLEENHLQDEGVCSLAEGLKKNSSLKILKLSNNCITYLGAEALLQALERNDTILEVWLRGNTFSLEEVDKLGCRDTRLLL
Sequence of Alkaline phosphatase, placental type (P05187 whole entry): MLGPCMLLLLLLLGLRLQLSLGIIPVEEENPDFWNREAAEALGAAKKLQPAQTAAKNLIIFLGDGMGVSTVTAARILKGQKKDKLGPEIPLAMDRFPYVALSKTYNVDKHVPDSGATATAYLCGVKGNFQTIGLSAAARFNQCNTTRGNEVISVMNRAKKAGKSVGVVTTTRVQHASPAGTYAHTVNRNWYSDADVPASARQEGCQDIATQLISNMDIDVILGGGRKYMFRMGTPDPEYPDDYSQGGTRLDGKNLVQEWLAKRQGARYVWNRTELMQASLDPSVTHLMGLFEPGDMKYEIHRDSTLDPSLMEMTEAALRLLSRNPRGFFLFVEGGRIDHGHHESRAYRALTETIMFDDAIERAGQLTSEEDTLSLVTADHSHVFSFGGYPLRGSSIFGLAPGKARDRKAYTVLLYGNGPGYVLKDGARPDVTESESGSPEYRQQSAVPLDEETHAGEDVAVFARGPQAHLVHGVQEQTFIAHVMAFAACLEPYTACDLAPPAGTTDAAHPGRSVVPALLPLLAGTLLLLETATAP

Q: Which IC50 [1] does the source give for `O=C(C1CCC1)N(CCc1ccccc1)Cc1nc(O)c2ccccc2n1` here?
A: > 50 µM (inactive)

Q: What does the source list for `CC(C)Cc1nc(N)nn1-c1ccccc1`?
A: IC50 [2]: > 100 µM (inactive); IC50 [3]: > 100 µM (inactive); IC50 [4]: > 100 µM (not active)

Q: Which results are given for `CN(C)Cc1c(O)ccc2c1O/C(=C\C=C\c1ccccc1)C2=O`?
A: AC50 [5]: > 350 µM (inactive); AC50 [6]: > 350 µM (inactive); AC50 [7]: > 350 µM (inactive)

Q: For `O=S1(=O)C=C(Sc2nnc(-c3ccccc3)o2)c2ccccc21`, which AC50 [8] is on record?
A: 1.7 µM (active)

Q: And the EC50 [9]?
A: 2.8 µM (active)

Q: What about the CC50 [10] of the same molecule?
A: 18.5 µM (active)

Q: What about the IC50 [11] of the same molecule?
A: > 20 µM (inactive)

Q: And the IC50 [12]?
A: > 20 µM (inactive)

Q: What about the EC50 [13] of the same molecule?
A: 2.8 µM (inconclusive)

Q: What about the EC50 [14] of the same molecule?
A: > 20 µM (inactive)

Q: What about the AC50 [15] of the same molecule?
A: 8.89 µM (active)

Q: And the AC50 [16]?
A: 4 µM (active)

Q: And the AC50 [17]?
A: 0.281 µM (active)

Q: And the CC50 [18]?
A: 2.87 µM (active)

Q: And the EC50 [19]?
A: 2.33 µM (active)

Q: And the IC50 [20]?
A: 5.52 µM (active)

Q: What about the EC50 [21] of the same molecule?
A: 0.941 µM (active)

Q: What about the EC50 [22] of the same molecule?
A: > 20 µM (inactive)

Q: And the EC50 [23]?
A: 4.19 µM (active)

Q: What about the AC50 [24] of the same molecule?
A: 7.3 µM (active)

Q: What about the IC50 [25] of the same molecule?
A: 6.48 µM (inactive)

Q: What about the CC50 [26] of the same molecule?
A: 6.02 µM (active)

Q: And the IC50 [27]?
A: 1.13 µM (active)

Q: What about the EC50 [28] of the same molecule?
A: 1.48 µM (active)

Q: What about the EC50 [29] of the same molecule?
A: 7.16 µM (inconclusive)

Q: And the EC50 [30]?
A: 2.38 µM (active)

Q: And the AC50 [31]?
A: 2.9 µM (active)
